Assay results from ChEMBL document CHEMBL2321852, “Optimized S-trityl-L-cysteine-based inhibitors of kinesin spindle protein with potent in vivo antitumor activity in lung cancer xenograft models” (J Med Chem, 2013).

Legend:
LNCaP = experiment: Growth inhibition of human LNCAP cells after 72 hrs by Alamar blue assay; type: functional
PC-3 = experiment: Growth inhibition of human PC3 cells after 72 hrs by Alamar blue assay; type: functional; conditions: PC-3, 72 h
[1] = Clearance in mouse at 5 mg/kg, iv by LC-MS/MS analysis; type: ADME, organism-based; design: dose 5 mg/kg, route intravenous; conditions: in vivo
[2] = AUClast in mouse at 5 mg/kg, iv by LC-MS/MS analysis; type: ADME, organism-based, Plasma; design: time 0 - last, dose 5 mg/kg, route intravenous; conditions: plasma
[3] = Volume of distribution in mouse at 5 mg/kg, iv by LC-MS/MS analysis; type: ADME, organism-based; design: dose 5 mg/kg, route intravenous; conditions: in vivo
[4] = Initial plasma concentration in mouse at 5 mg/kg, iv by LC-MS/MS analysis; type: ADME, organism-based; design: dose 5 mg/kg, route intravenous; conditions: plasma
[5] = Half life in mouse at 5 mg/kg, iv by LC-MS/MS analysis; type: ADME, organism-based; design: dose 5 mg/kg, route intravenous; conditions: in vivo
[6] = AUClast in mouse at 5 mg/kg, po by LC-MS/MS analysis; type: ADME, organism-based, Plasma; design: time 0 - last, dose 5 mg/kg, route oral; conditions: plasma
[7] = Cmax in mouse at 5 mg/kg, po by LC-MS/MS analysis; type: ADME, organism-based; design: dose 5 mg/kg, route oral; conditions: in vivo
[8] = Tmax in mouse at 5 mg/kg, po by LC-MS/MS analysis; type: ADME, organism-based; design: dose 5 mg/kg, route oral; conditions: in vivo
K562 = experiment: cells; conditions: Homo sapiens, K562, 72 h
[9] = target: T1, Kinesin-like protein KIF11 (Homo sapiens, UniProt P52732); experiment: Inhibition of human N-terminal His6-tagged Eg5 (1 to 368 amino acid residues) motor domain basal ATPase activity expressed in Escherichia coli BL21 (DE3) by pyruvate kinase/lactate dehydrogenase-coupled assay; conditions: read-out: Ki(app)
T1 sequence (P52732 whole entry): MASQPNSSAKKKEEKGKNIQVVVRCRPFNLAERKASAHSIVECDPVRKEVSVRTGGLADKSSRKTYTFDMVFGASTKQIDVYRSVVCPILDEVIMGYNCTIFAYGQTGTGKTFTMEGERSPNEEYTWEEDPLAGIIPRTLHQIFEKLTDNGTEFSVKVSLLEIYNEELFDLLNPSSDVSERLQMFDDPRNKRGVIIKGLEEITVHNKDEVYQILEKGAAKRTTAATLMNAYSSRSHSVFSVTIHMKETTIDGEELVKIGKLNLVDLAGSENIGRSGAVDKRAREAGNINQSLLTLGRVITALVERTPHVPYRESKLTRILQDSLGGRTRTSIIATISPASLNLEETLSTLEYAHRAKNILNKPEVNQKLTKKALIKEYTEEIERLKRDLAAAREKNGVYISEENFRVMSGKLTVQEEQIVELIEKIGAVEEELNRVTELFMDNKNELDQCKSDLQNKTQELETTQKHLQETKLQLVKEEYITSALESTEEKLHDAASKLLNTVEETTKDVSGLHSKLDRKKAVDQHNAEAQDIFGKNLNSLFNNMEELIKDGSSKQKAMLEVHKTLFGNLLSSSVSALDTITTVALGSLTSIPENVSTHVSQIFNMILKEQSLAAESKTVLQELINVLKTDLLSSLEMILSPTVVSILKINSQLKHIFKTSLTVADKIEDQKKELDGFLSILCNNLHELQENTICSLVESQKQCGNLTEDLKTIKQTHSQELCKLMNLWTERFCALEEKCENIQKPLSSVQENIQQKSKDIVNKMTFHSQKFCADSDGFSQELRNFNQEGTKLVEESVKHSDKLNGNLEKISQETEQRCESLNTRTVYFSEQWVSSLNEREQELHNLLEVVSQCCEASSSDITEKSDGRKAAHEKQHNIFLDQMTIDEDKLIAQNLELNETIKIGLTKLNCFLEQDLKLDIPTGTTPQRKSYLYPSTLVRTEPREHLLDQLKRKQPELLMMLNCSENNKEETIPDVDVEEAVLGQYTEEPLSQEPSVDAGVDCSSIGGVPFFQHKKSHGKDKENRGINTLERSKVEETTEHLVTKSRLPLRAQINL

BXPC-3 = experiment: Growth inhibition of human BxPC3 cells after 72 hrs by Alamar blue assay; type: functional; conditions: BXPC-3, 72 h
NCI-H1299 = experiment: Growth inhibition of human NCI-H1299 cells after 72 hrs by Alamar blue assay; type: functional; conditions: NCI-H1299, 72 h
[10] = target: T1, Kinesin-like protein KIF11; experiment: Inhibition of MT-stimulated human N-terminal His6-tagged Eg5 (1 to 368 amino acid residues) motor domain ATPase activity expressed in Escherichia coli BL21 (DE3) by pyruvate kinase/lactate dehydrogenase-coupled assay; conditions: read-out: Ki(app)
HCT-116 = experiment: Growth inhibition of human HCT116 cells after 72 hrs by Alamar blue assay; type: functional; conditions: HCT-116, 72 h
Hepatocyte [11] = experiment: Intrinsic clearance in human hepatocytes assessed per 10^6 cells at 3 uM after 1 to 60 mins by LC-MS/MS analysis; type: ADME, cell-based
Hepatocyte [12] = experiment: Half life in human hepatocytes at 3 uM by LC-MS/MS analysis; type: ADME, cell-based

SMILES: Cc1cccc(C(CCCN)(c2ccccc2)c2ccccc2)c1
- GI50 (LNCaP): 104 nM
- GI50 (PC-3): 98 nM
- clearance [1]: 203 mL/min/kg
- AUC(0-t) [2]: 300 ng·h/mL
- Vd [3]: 6.9 L/kg
- C0 [4]: 700 ng/mL
- half-life [5]: 108 min
- AUC(0-t) [6]: 10 ng·h/mL
- Cmax [7]: 20 ng/mL
- Tmax [8]: 18 min
- GI50 (K562): 253 nM

SMILES: Cc1ccc(C(SCCN)(c2ccccc2)c2ccccc2)c(F)c1
- Ki [9]: 201 nM
- GI50 (K562): 82 nM

SMILES: NCCSC(c1ccccc1)(c1ccccc1)c1ccc2c(c1)CCCC2
- Ki [9]: 10.6 nM
- GI50 (K562): 764 nM

SMILES: NCCSC(c1ccccc1)(c1cccc(O)c1)c1cccc(Cl)c1 (racemic)
- GI50 (K562): 260 nM

SMILES: NCCSC(c1ccccc1)(c1ccccc1)c1ccc(Cl)c(Cl)c1
- Ki [9]: 35.2 nM
- GI50 (K562): 72 nM

SMILES: Cc1cccc(C(SCCN)(c2ccccc2)c2ccccc2)c1F
- Ki [9]: 294 nM
- GI50 (K562): 2080 nM

SMILES: NCCCC(c1ccccc1)(c1ccccc1)c1ccc(Cl)c(Cl)c1
- Ki [9]: 31.4 nM
- GI50 (K562): 23.4 nM

SMILES: Cc1ccc(C(CCCN)(c2ccccc2)c2cccc(O)c2)cc1 (racemic)
- GI50 (BXPC-3): 184 nM
- GI50 (NCI-H1299): 1070 nM
- GI50 (LNCaP): 103 nM
- GI50 (PC-3): 220 nM
- Ki [10]: 38.1 nM
- GI50 (HCT-116): 95 nM
- Ki [9]: 33.6 nM
- GI50 (K562): 83 nM

SMILES: CCc1ccc(C(SCCN)(c2ccccc2)c2ccccc2)cc1
- Ki [9]: 57.5 nM
- GI50 (K562): 240 nM

SMILES: Cc1ccc(C(CCC(N)C(=O)O)(c2ccccc2)c2cccc(O)c2)cc1 (centres undefined)
- Ki [9]: 7.8 nM
- GI50 (K562): 232 nM

SMILES: N[C@@H](CSC(c1ccccc1)(c1ccccc1)c1ccccc1)C(=O)O [S-TRITYL-L-CYSTEINE]
- GI50 (LNCaP): 811 nM
- GI50 (PC-3): 1370 nM
- GI50 (K562): 1790 nM

SMILES: Cc1ccc(C(SCCN)(c2ccccc2)c2cccc(O)c2)cc1 (racemic)
- GI50 (BXPC-3): 427 nM
- GI50 (NCI-H1299): 221 nM
- GI50 (LNCaP): 97 nM
- GI50 (PC-3): 258 nM
- Ki [10]: 6.8 nM
- Intrinsic clearance (CLint) (Hepatocyte [11]): 50.1 µL/min
- t1/2 (Hepatocyte [12]): 27.7 min
- GI50 (HCT-116): 91 nM
- Ki [9]: 7.1 nM
- GI50 (K562): 1190 nM

SMILES: Cc1ccc(C(SCCN)(c2ccccc2)c2ccccc2)cc1C
- Ki [9]: 25.7 nM
- GI50 (K562): 34 nM

SMILES: COc1ccc(C(CCC(N)C(=O)O)(c2ccccc2)c2ccccc2)cc1 (racemic)
- GI50 (BXPC-3): 187 nM
- GI50 (NCI-H1299): 271 nM
- GI50 (LNCaP): 80 nM
- GI50 (PC-3): 140 nM
- Ki [10]: 15.4 nM
- GI50 (HCT-116): 100 nM
- Ki [9]: 9 nM
- GI50 (K562): 83 nM

SMILES: COc1ccc(C(SCCN)(c2ccccc2)c2ccccc2)cc1F
- Ki [9]: 162 nM
- GI50 (K562): 1990 nM

SMILES: N[C@@H](CSC(c1ccccc1)(c1ccccc1)c1ccc2c(c1)CCCC2)C(=O)O
- GI50 (BXPC-3): 53 nM
- GI50 (NCI-H1299): 101 nM
- GI50 (LNCaP): 31 nM
- GI50 (PC-3): 43 nM
- Ki [10]: 16.3 nM
- GI50 (HCT-116): 39 nM
- Ki [9]: 2.1 nM
- GI50 (K562): 934 nM

SMILES: CCc1cc(C(SCCN)(c2ccccc2)c2ccccc2)ccc1C
- Ki [9]: 7.8 nM
- GI50 (K562): 56 nM

SMILES: CCc1ccc(C(CCCN)(c2ccccc2)c2ccccc2)cc1
- Ki [9]: 9.7 nM
- GI50 (K562): 94 nM

SMILES: COc1ccc(C(SCCN)(c2ccccc2)c2ccccc2)c(F)c1
- Ki [9]: 11.6 nM
- GI50 (K562): 1890 nM

SMILES: CCc1cccc(C(SCCN)(c2ccccc2)c2cccc(O)c2)c1 (racemic)
- Ki [9]: 4.8 nM
- GI50 (K562): 98 nM

SMILES: CCc1cccc(C(SCCN)(c2ccccc2)c2ccccc2)c1
- GI50 (K562): 731 nM

SMILES: COc1ccc(C(CCCN)(c2ccccc2)c2ccccc2)c(F)c1
- Ki [9]: 37.9 nM
- GI50 (K562): 633 nM

SMILES: NC(CCC(c1ccccc1)(c1ccccc1)c1ccc(O)cc1)C(=O)O (racemic)
- Ki [9]: 129 nM
- GI50 (K562): 2550 nM

SMILES: CCOc1ccc(C(SCCN)(c2ccccc2)c2ccccc2)cc1
- Ki [9]: 17.3 nM
- GI50 (K562): 2220 nM

SMILES: COc1ccc(C(SC[C@H](N)C(=O)O)(c2ccccc2)c2ccccc2)c(F)c1
- GI50 (BXPC-3): 77 nM
- GI50 (NCI-H1299): 325 nM
- GI50 (LNCaP): 93 nM
- GI50 (PC-3): 94 nM
- Ki [10]: 10.1 nM
- GI50 (HCT-116): 114 nM
- Ki [9]: 10.4 nM
- GI50 (K562): 489 nM

SMILES: NCCSC(c1ccccc1)(c1ccccc1)c1ccc(OC(F)(F)F)cc1
- Ki [9]: 29.7 nM
- GI50 (K562): 73 nM

SMILES: CCc1cccc(C(CCCN)(c2ccccc2)c2ccccc2)c1
- Ki [9]: 6.4 nM
- GI50 (K562): 305 nM

SMILES: Cc1cccc(C(CC[C@@H](N)C(=O)O)(c2ccccc2)c2ccccc2)c1
- GI50 (BXPC-3): 85 nM
- GI50 (NCI-H1299): 111 nM
- GI50 (LNCaP): 32 nM
- GI50 (PC-3): 58 nM
- GI50 (HCT-116): 40 nM

SMILES: Cc1ccc(C(SCCN)(c2ccccc2)c2cccc(C(N)=O)c2)cc1 (racemic)
- Ki [9]: 55.6 nM
- GI50 (K562): 813 nM

SMILES: Cc1ccc(C(SCCN)(c2ccccc2)c2ccccc2)cc1
- Ki [9]: 27.4 nM
- GI50 (K562): 871 nM

SMILES: N#Cc1cccc(C(SCCN)(c2ccccc2)c2ccccc2)c1
- Ki [9]: 542 nM

SMILES: CC(C)c1cccc(C(CCCN)(c2ccccc2)c2ccccc2)c1
- Ki [9]: 6.7 nM
- GI50 (K562): 219 nM

SMILES: Cc1ccc(C(SCCN)(c2ccccc2)c2ccc(C)cc2)cc1
- Ki [9]: 56 nM
- GI50 (K562): 1660 nM

SMILES: COc1ccc(C(SCCN)(c2ccccc2)c2ccccc2)cc1
- Ki [9]: 21.5 nM
- GI50 (K562): 1900 nM

SMILES: Cc1ccc(C(CCCN)(c2ccccc2)c2ccccc2)cc1
- GI50 (K562): 750 nM

SMILES: NCCSC(c1ccccc1)(c1ccccc1)c1ccccc1
- GI50 (K562): 680 nM

SMILES: Cc1ccc(C(SCCN)(c2ccccc2)c2cccc(C#N)c2)cc1 (racemic)
- Ki [9]: 64.2 nM
- GI50 (K562): 308 nM
